Assays:
IGF-1 = experiment: Ability to promote the production of insulin-like growth factor-1 (IGF-1) in mice; assay type: in vivo; conditions: mice (n=5), in drinking water, 5 mg/kg weight/day, 3 weeks, ELISA; untreated control 0.03
Method: Each of the test substances produced in Example 1 and the reference standard of sialic acid (N-acetylneuraminic acid produced by Wako Pure Chemical Industries, Ltd. and having a product number of 011-26173) was dissolved in drinking water, and after adjustment of their concentrations, the individual solutions were administered to mice (n=5); the test substances were administered at 5 mg/kg weight/day. After rearing for 3 weeks, the concentration of IGF-1 in peripheral blood was examined by ELISA method.

NIH3T3 cells = experiment: Cell-proliferative activity, NIH3T3 cells (MTT assay method, Cell Counting Kit-8); assay type: cell-based; conditions: for Cell proliferation rate: 24 hours, no addition taken as 100
Method: NIH3T3 cells were cultured in a 96-well microplate to give a cell density of 10^5 cells/well, and solutions of concentration-adjusted test substance 1 and reference standard of sialic acid (N-acetylneuraminic acid produced by Wako Pure Chemical Industries, Ltd. and having a product number of 011-26173) were each added in an amount of 10 μl, followed by culture in a CO2 incubator for 24 hours (37° C., 4.5% CO2). Cell proliferation was measured by the MTT assay method using a kit (Cell Counting Kit-8 produced by DOJINDO Corporation and having a product number of 347-07621).
The cell proliferation rate was calculated at the respective additive concentrations of the test substance 1, with the value for no addition (0 mg/ml) of the test substance 1 being taken as 100.
The cell proliferation rate was calculated at the respective additive concentrations of the reference standard of sialic acid, with the value for no addition (0 mg/ml) of the reference standard of sialic acid being taken as 100.

## CC(=O)N[C@H]1[C@H]([C@H](O)[C@H](O)CO)OC(O)(C(=O)O)C[C@@H]1O (some centres unmarked) [Reference standard of sialic acid, N-acetylneuraminic acid]
IGF-1
  IGF-1 concentration in peripheral blood: 4.4 µg/mL
NIH3T3 cells; additive concentration 0.08 mg/ml
  Cell proliferation rate: 96
NIH3T3 cells; additive concentration 0.31 mg/ml
  Cell proliferation rate: 98
NIH3T3 cells; additive concentration 1.25 mg/ml
  Cell proliferation rate: 101
NIH3T3 cells; additive concentration 2.5 mg/ml
  Cell proliferation rate: 98
NIH3T3 cells; additive concentration 5.0 mg/ml
  Cell proliferation rate: 99
NIH3T3 cells; additive concentration 10.0 mg/ml
  Cell proliferation rate: 102
NIH3T3 cells; additive concentrations up to 10.0 mg/ml
  Change in cell proliferation rate (in words): No change was recognized in the proliferation rate

— US10610537B2, “Methods of producing sialooligosaccharides and uses thereof” (MASAYOSHI LTD., priority 2016, dated 2020)
